Assay results taken from patent US20250090699A1, “FAP TARGETING CYCLIC PEPTIDES AND CONJUGATES THEREOF” (Novartis AG, priority 2023, published 2025).
Counter-ions that a name gives are not always drawn. Non-standard residues stand in square brackets, D forms with d. Residues, ends and D or L forms follow the SMILES beside them. Trp(7-Cl) = N[C@@H](Cc1c[nH]c2c(Cl)cccc12)C(=O)O; Trp(6-OH) = N[C@@H](Cc1c[nH]c2cc(O)ccc12)C(=O)O; Trp(7-F) = N[C@@H](Cc1c[nH]c2c(F)cccc12)C(=O)O; Trp(7-aza) = N[C@@H](Cc1c[nH]c2ncccc12)C(=O)O; Phe(4-CH2NH2) = NCc1ccc(C[C@H](N)C(=O)O)cc1; NMeF = CN[C@@H](Cc1ccccc1)C(=O)O; Ahp(2) = CCCCC[C@H](N)C(=O)O; AEEA = NCCOCCOCC(=O)O

How the values were obtained:
mouse FAP [1] = biological target: T1, mouse FAP (Mus musculus, UniProt P97321); assay: Enzymatic FAP competition assay (Z-Gly-Pro-AMC fluorescence), mouse FAP; type: biochemical; details: read-out: m. FAP, Enz., IC50
T1 construct: biotinylated His, Avi tag, mouse FAP (26-761, FAP-M82Q5); His; Avi tag (biotinylated); purchased AcroBiosystems FAP-M82Q5
T1 sequence (P97321 26-761): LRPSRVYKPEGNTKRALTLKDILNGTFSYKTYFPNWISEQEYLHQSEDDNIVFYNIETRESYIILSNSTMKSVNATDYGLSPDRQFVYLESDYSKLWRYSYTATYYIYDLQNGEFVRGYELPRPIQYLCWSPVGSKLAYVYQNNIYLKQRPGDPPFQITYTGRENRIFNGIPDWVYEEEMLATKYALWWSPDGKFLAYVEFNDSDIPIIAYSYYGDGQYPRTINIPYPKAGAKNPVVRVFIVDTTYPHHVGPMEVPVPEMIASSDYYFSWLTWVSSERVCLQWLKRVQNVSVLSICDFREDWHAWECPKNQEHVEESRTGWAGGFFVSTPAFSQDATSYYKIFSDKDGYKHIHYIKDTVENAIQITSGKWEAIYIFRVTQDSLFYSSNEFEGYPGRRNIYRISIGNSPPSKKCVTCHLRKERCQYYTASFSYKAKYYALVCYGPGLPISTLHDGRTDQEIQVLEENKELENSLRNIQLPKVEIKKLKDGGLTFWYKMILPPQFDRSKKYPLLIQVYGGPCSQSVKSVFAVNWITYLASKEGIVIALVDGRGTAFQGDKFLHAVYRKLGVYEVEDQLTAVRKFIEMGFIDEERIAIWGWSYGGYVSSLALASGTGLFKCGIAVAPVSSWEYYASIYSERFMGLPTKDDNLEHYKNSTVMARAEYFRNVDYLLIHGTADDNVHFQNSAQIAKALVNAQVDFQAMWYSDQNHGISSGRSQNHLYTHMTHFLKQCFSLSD
Method: (§1) Peptide potencies (IC50) to inhibit the FAP enzymatic activity were determined using a fluorescence-based assay towards the biotinylated His, Avi tag, human FAP (26-760, FAP-H82Q6) and the biotinylated His, Avi tag, mouse FAP (26-761, FAP-M82Q5). Standard assay conditions consisted of 20 μL total volume in white 384-well plates (Greiner, Ref. 784075), in 50 mM phosphate buffer pH 7.5 containing 150 mM NaCl, 0.05% Tween20 and 1% final DMSO. Tested peptides at 14 different concentrations up to 1 μM were added to 0.01 nM human or mouse FAP. The peptides were incubated for 24 hours together with the protein before adding the substrate 50 μM Z-Gly-Pro-AMC (I-1145 from Bachem). Samples were then incubated at 22-24° C. for 4 h before reading the fluorescence at excitation wavelength of 380 nm and emission wavelength of 460 nm using the Tecan Infinite® M1000 PRO. The high control (100% activity) was not containing any peptide, and an internal potent peptide was added at 10 μM concentration for the low control (100% inhibition). IC50 values were calculated by curve fitting using an in-house developed software (Novartis Helios software application) using the method described by Fomenko et al., 2006 (regression algorithms for nonlinear dose-response curve fitting). Following normalization of activity values for the wells to % inhibition (% inhibition=[(high control-sample)/(high control-low control)]x 100). IC50 fitting was carried out from the duplicated points.

human FAP = biological target: T2, human FAP (Homo sapiens, UniProt Q12884); assay: Enzymatic FAP competition assay (Z-Gly-Pro-AMC fluorescence), human FAP; type: biochemical; details: read-out: h. FAP, Enz., IC50
T2 construct: the biotinylated His, Avi tag, human FAP (26-760, FAP-H82Q6); His; Avi tag (biotinylated); purchased AcroBiosystems FAP-H82Q6
T2 sequence (Q12884 26-760): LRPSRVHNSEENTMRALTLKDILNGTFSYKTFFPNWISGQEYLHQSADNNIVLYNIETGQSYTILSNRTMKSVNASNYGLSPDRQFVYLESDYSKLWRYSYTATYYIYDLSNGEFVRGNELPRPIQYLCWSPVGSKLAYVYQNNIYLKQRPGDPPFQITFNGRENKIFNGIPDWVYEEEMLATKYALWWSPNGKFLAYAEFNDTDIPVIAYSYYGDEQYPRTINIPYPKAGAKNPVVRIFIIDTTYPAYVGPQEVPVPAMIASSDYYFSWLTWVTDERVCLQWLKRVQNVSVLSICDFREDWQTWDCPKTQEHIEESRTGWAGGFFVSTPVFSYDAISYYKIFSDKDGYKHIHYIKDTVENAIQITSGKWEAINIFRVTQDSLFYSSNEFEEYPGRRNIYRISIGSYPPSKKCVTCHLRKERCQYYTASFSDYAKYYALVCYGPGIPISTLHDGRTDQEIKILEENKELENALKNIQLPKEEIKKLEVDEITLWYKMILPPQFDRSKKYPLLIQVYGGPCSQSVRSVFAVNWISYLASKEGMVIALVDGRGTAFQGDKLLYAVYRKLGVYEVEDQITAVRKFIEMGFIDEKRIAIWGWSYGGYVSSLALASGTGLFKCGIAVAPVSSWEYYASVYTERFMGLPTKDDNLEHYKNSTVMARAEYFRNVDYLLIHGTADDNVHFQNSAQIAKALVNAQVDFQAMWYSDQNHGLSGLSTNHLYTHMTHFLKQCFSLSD
Method: as §1

mouse FAP [2] = biological target: T1, mouse FAP; assay: Surface plasmon resonance (SPR) for peptide affinity, mouse FAP; type: binding
Method: Peptide affinities (KD) were determined by SPR using a Biacore™ 8K device (Cytiva) towards the following proteins: biotinylated His, Avi tag, human FAP (26-760, FAP-H82Q6), biotinylated His, Avi tag, mouse FAP (26-761, FAP-M82Q5), His tag, human DPP4 (34-766, DP4-H82E3), all purchased from AcroBiosystems and His tag, mouse DPP4 (29-760, 954-SE) from R&D Systems. The FAP proteins and their homologous were diluted to a concentration of 2 μg/mL into acetate buffer pH 5.5, then immobilized onto a CM5 sensorchip (Cytiva, BR-1005-30) to reach a response around 2000 R U. The running buffer HBS-EP+pH 7.6 (20× from Teknova CAT. No: H8022) contained 10 mM HEPES pH 7.6, 150 mM NaCl, 3 mM EDTA, 0.05% Tween20 and 2% DMSO. Experiments were carried out at 25° C. using a flow rate of 30 μL/min. Compounds were tested in single cycle kinetic mode at 8 different concentrations. Curve fitting was performed using the Biacore™ 8K evaluation software. The sensorgrams were fitted by applying a 1:1 binding model to calculate kinetic rate constants and equilibrium dissociation constants (KD).
For this assay, the setup had the same conditions (flow rate, running buffer, peptide dilution) as described above for the CM5 method. The oligo CAP reagent obtained in the CAPture Kit (Ref. 28920234) was 1/5 diluted into running buffer and used with a contact time of 300 s at a flow rate of 2 μL/min. The human and mouse FAP constructs described above were used (from AcroBiosystems or produced in house). The FAP proteins were diluted to a concentration of 2 μg/mL into acetate pH 5.5, 0.05% Tween20 and used with a contact time of 600 s at a flow rate of 10 μL/min. The peptides were tested with an association time of 280 s followed by a dissociation time of 3000 s at a flow rate of 30 μL/min. The regeneration was done using the regeneration solution (8 M guanidine-HCl, 1 M NaOH) as obtained with a contact time of 270 s at a flow rate of 10 μL/min. […] The compounds marked with an asterisk were tested against human and mouse DDP4.

Structure (SMILES) | IC50 (mouse FAP [1]) [nM] | IC50 (human FAP) [nM] | Kd (mouse FAP [2]) [nM]
CCCCC[C@@H]1NC(=O)[C@H](Cc2ccc(O)cc2)NC(=O)[C@H](Cc2ccccc2)N(C)C(=O)[C@H](CCC(=O)O)NC(=O)[C@H](CCCCN)NC(=O)[C@H]2CCCN2C(=O)[C@H](CC(=O)O)NC(=O)[C@H](Cc2ccc(O)cc2)NC(=O)CNC(=O)[C@H](Cc2c[nH]c3ccccc23)NC1=O [Example A21, Lys-Glu-NMePhe-Tyr-Ahp-Trp-Gly-Tyr-Asp-D-Pro, TFA salt] (cyclo([Ahp(2)]WGYD[dP]KE[NMeF]Y)) | 14 | 5.7 | 15
CCCCC[C@@H]1NC(=O)[C@H](Cc2ccc(O)cc2)NC(=O)[C@H](Cc2ccccc2)NC(=O)CNC(=O)[C@H](CCCCN)NC(=O)[C@H]2CCCN2C(=O)[C@H](CC(=O)O)NC(=O)[C@H](Cc2ccc(O)cc2)NC(=O)CNC(=O)[C@H](Cc2c[nH]c3ccccc23)NC1=O [Example A22, Lys-Gly-Phe-Tyr-Ahp-Trp-Gly-Tyr-Asp-D-Pro, TFA salt] (cyclo([Ahp(2)]WGYD[dP]KGFY)) | 0.67 | 0.33 | 0.87
CCCCC[C@@H]1NC(=O)[C@H](Cc2ccc(O)cc2)NC(=O)[C@H](Cc2ccccc2)N(C)C(=O)CNC(=O)[C@H](CCCCN)NC(=O)[C@H]2CCCN2C(=O)[C@H](CC(=O)O)NC(=O)[C@H](Cc2ccc(O)cc2)NC(=O)CNC(=O)[C@H](Cc2c[nH]c3c(F)cccc23)NC1=O [Example A23, Lys-Gly-NMePhe-Tyr-Ahp-W(7F)-Gly-Tyr-Asp-D-Pro, TFA salt] (cyclo([Ahp(2)][Trp(7-F)]GYD[dP]KG[NMeF]Y)) | 0.48 | 0.111 | 0.45
CCCCC[C@@H]1NC(=O)[C@H](Cc2ccc(O)cc2)NC(=O)[C@H](Cc2ccccc2)N(C)C(=O)CNC(=O)[C@H](CCCCN)NC(=O)[C@H]2CCCN2C(=O)[C@H](CC(=O)O)NC(=O)[C@H](Cc2ccc(O)cc2)NC(=O)CNC(=O)[C@H](Cc2c[nH]c3cc(O)ccc23)NC1=O [Example A24, Lys-Gly-NMePhe-Tyr-Ahp-W(6OH)-Gly-Tyr-Asp-D-Pro, TFA salt] (cyclo([Ahp(2)][Trp(6-OH)]GYD[dP]KG[NMeF]Y)) | 1.3 | 0.37 | 0.85
CCCCC[C@@H]1NC(=O)[C@H](Cc2ccc(O)cc2)NC(=O)[C@H](Cc2ccccc2)N(C)C(=O)CNC(=O)[C@H](CCCCN)NC(=O)[C@H]2CCCN2C(=O)[C@H](CC(=O)O)NC(=O)[C@H](Cc2ccc(O)cc2)NC(=O)CNC(=O)[C@H](Cc2c[nH]c3c(Cl)cccc23)NC1=O [Example A25, Lys-Gly-NMePhe-Tyr-Ahp-W(7Cl)-Gly-Tyr-Asp-D-Pro, TFA salt] (cyclo([Ahp(2)][Trp(7-Cl)]GYD[dP]KG[NMeF]Y)) | 0.86 | 0.209 | 0.47
CCCCC[C@@H]1NC(=O)[C@H](Cc2ccc(O)cc2)NC(=O)[C@H](Cc2ccccc2)N(C)C(=O)CNC(=O)[C@H](CCCCN)NC(=O)[C@H]2CCCN2C(=O)[C@H](CC(=O)O)NC(=O)[C@H](Cc2ccc(O)cc2)NC(=O)CNC(=O)[C@H](Cc2c[nH]c3ncccc23)NC1=O [Example A26, 2-((3S,9S,12S,15S,18S,24S,27S,32aR)-18-((1H-pyrrolo[2,3-b]pyridin-3-yl)methyl)-3-(4-aminobutyl)-9-benzyl-12,24-bis(4-hydroxybenzyl)-8-methyl-1,4,7,10,13,16,19,22,25,28-decaoxo-15-pentyldotriacontahydropyrrolo[1,2-a][1,4,7,10,13,16,19,22,25,28]decaazacyclotriacontin-27-yl)acetic acid TFA salt] (cyclo([Ahp(2)][Trp(7-aza)]GYD[dP]KG[NMeF]Y)) | 1.6 | 0.47 | 2.7
CCCCC[C@@H]1NC(=O)[C@H](Cc2ccc(CNC(=O)COCCOCCN)cc2)NC(=O)[C@H](Cc2ccccc2)N(C)C(=O)CNC(=O)CNC(=O)[C@H]2CCCN2C(=O)[C@H](CC(=O)O)NC(=O)[C@H](Cc2ccc(O)cc2)NC(=O)CNC(=O)[C@H](Cc2c[nH]c3ccccc23)NC1=O [Example A27, Gly-Gly-NMePhe-F(4amPEG2NH2)-Ahp-Trp-Gly-Tyr-Asp-D-Pro] (cyclo([Ahp(2)]WGYD[dP]GG[NMeF][Phe(4-CH2NH2)](AEEA))) | 0.138 | 0.045 | 0.219
CCCCC[C@@H]1NC(=O)[C@H](Cc2ccc(CNC(C)=O)cc2)NC(=O)[C@H](Cc2ccccc2)N(C)C(=O)CNC(=O)CNC(=O)[C@H]2CCCN2C(=O)[C@H](CC(=O)O)NC(=O)[C@H](Cc2ccc(O)cc2)NC(=O)CNC(=O)[C@H](Cc2c[nH]c3ccccc23)NC1=O [Example A28, Gly-Gly-NMePhe-F(4AmAc)-Ahp-Trp-Gly-Tyr-Asp-D-Pro] (cyclo(GG[NMeF][Phe(4-CH2NH2)](Ac)[Ahp(2)]WGYD[dP])) | 0.33 | 0.063 | 0.52
